Test results: patent publication US10519152B2, “Compounds and their use in treating cancer” (AstraZeneca AB, priority 2017, dated 2019)

Each molecule was assayed against T1, recombinant human Estrogen Receptor alpha ligand binding domain, residues 307-554 (ER alpha-LBD (GST)) (Homo sapiens, UniProt P03372) (assay: ERα binding assay (LanthaScreen TR-FRET competition)). Conditions: TR-FRET competition with Fluormone ES2 tracer, 4 hours at room temperature; single experiment or average of two or more.
T1 construct: made in house
T1 sequence (P03372 307-554): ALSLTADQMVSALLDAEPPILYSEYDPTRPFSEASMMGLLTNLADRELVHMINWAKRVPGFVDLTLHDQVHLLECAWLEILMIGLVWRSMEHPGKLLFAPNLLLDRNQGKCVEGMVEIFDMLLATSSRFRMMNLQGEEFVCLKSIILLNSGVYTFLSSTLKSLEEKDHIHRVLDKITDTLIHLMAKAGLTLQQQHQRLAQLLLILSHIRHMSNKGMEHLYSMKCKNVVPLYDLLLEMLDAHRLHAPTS
`Cc1ncsc1-c1ccc([C@H](C)NC(=O)[C@@H]2C[C@@H](O)CN2C(=O)[C@@H](NC(=O)COCCc2ccc(COc3cc(F)c([C@@H]4c5[nH]c6ccccc6c5C[C@@H](C)N4CC(C)(C)F)c(F)c3)nc2)C(C)(C)C)cc1` [Example 159, (2S,4R)-1-((S)-2-(2-(2-(6-((3,5-Difluoro-4-((1R,3R)-2-(2-fluoro-2-methylpropyl)-3-methyl-2,3,4,9-tetrahydro-1H-pyrido[3,4-b]indol-1-yl)phenoxy)methyl)pyridin-3-yl)ethoxy)acetamido)-3,3-dimethylbutanoyl)-4-hydroxy-N—((S)-1-(4-(4-methylthiazol-5-yl)phenyl)ethyl)pyrrolidine-2-carboxamide] showed an IC50 of 0.7 nM.
For `Cc1ncsc1-c1ccc(CNC(=O)[C@@H]2C[C@@H](O)CN2C(=O)[C@@H](NC(=O)CCCOc2ccc(COc3cc(F)c([C@@H]4c5[nH]c6ccccc6c5C[C@@H](C)N4CC(C)(C)F)c(F)c3)nc2)C(C)(C)C)cc1` [Example 161, (2S,4R)-1-((S)-2-(4-((6-((3,5-Difluoro-4-((1R,3R)-2-(2-fluoro-2-methylpropyl)-3-methyl-2,3,4,9-tetrahydro-1H-pyrido[3,4-b]indol-1-yl)phenoxy)methyl)pyridin-3-yl)oxy)butanamido)-3,3-dimethylbutanoyl)-4-hydroxy-N-(4-(4-methylthiazol-5-yl)benzyl)pyrrolidine-2-carboxamide], the IC50 was 0.7 nM.
`Cc1ncsc1-c1ccc(CNC(=O)[C@@H]2C[C@@H](O)CN2C(=O)[C@@H](NC(=O)CCCOc2cccc(COc3cc(F)c([C@@H]4c5[nH]c6ccccc6c5C[C@@H](C)N4CC(C)(C)F)c(F)c3)n2)C(C)(C)C)cc1` [Example 162, (2S,4R)-1-((S)-2-(4-((6-((3,5-Difluoro-4-((1R,3R)-2-(2-fluoro-2-methylpropyl)-3-methyl-2,3,4,9-tetrahydro-1H-pyrido[3,4-b]indol-1-yl)phenoxy)methyl)pyridin-2-yl)oxy)butanamido)-3,3-dimethylbutanoyl)-4-hydroxy-N-(4-(4-methylthiazol-5-yl)benzyl)pyrrolidine-2-carboxamide] showed an IC50 of 1.1 nM.
`Cc1ncsc1-c1ccc(CNC(=O)[C@@H]2C[C@@H](O)CN2C(=O)[C@@H](NC(=O)COCCOCCCCCOc2cnc([C@@H]3c4[nH]c5ccccc5c4C[C@@H](C)N3CC(C)(F)F)c(F)c2)C(C)(C)C)cc1` [Example 164, (2S,4R)-1-((S)-2-(2-(2-((5-((6-((1S,3R)-2-(2,2-Difluoropropyl)-3-methyl-2,3,4,9-tetrahydro-1H-pyrido[3,4-b]indol-1-yl)-5-fluoropyridin-3-yl)oxy)pentyl)oxy)ethoxy)acetamido)-3,3-dimethylbutanoyl)-4-hydroxy-N-(4-(4-methylthiazol-5-yl)benzyl)pyrrolidine-2-carboxamide] was tested, and the IC50 was 6.6 nM.
Molecule `Cc1ncsc1-c1ccc(CNC(=O)[C@@H]2C[C@@H](O)CN2C(=O)[C@@H](NC(=O)COCCOCCCCCOc2cnc([C@@H]3c4[nH]c5ccccc5c4C[C@@H](C)N3CC(F)(F)F)c(F)c2)C(C)(C)C)cc1` [Example 165, (2S,4R)-1-((S)-2-(2-(2-((5-((5-Fluoro-6-((1S,3R)-3-methyl-2-(2,2,2-trifluoroethyl)-2,3,4,9-tetrahydro-1H-pyrido[3,4-b]indol-1-yl)pyridin-3-yl)oxy)pentyl)oxy)ethoxy)acetamido)-3,3-dimethylbutanoyl)-4-hydroxy-N-(4-(4-methylthiazol-5-yl)benzyl)pyrrolidine-2-carboxamide] has an IC50 of 11.4 nM.
With `Cc1ncsc1-c1ccc(CNC(=O)[C@@H]2C[C@@H](O)CN2C(=O)[C@@H](NC(=O)COCCOCCCCCOc2cc(F)c([C@@H]3c4[nH]c5ccccc5c4C[C@@H](C)N3CC(C)(F)F)c(F)c2)C(C)(C)C)cc1` [Example 166, (2S,4R)-1-((S)-2-(2-(2-((5-(4-((1R,3R)-2-(2,2-Difluoropropyl)-3-methyl-2,3,4,9-tetrahydro-1H-pyrido[3,4-b]indol-1-yl)-3,5-difluorophenoxy)pentyl)oxy)ethoxy)acetamido)-3,3-dimethylbutanoyl)-4-hydroxy-N-(4-(4-methylthiazol-5-yl)benzyl)pyrrolidine-2-carboxamide] the IC50 was 0.8 nM.
With `Cc1ncsc1-c1ccc(CNC(=O)[C@@H]2C[C@@H](O)CN2C(=O)[C@@H](NC(=O)COCCOCCCCCOc2cc(F)c([C@@H]3c4[nH]c5ccccc5c4C[C@@H](C)N3CC(F)F)c(F)c2)C(C)(C)C)cc1` [Example 167, (2S,4R)-1-((S)-2-(2-(2-((5-(4-((1R,3R)-2-(2,2-Difluoroethyl)-3-methyl-2,3,4,9-tetrahydro-1H-pyrido[3,4-b]indol-1-yl)-3,5-difluorophenoxy)pentyl)oxy)ethoxy)acetamido)-3,3-dimethylbutanoyl)-4-hydroxy-N-(4-(4-methylthiazol-5-yl)benzyl)pyrrolidine-2-carboxamide] the IC50 was 0.9 nM.
